Results taken from ChEMBL document CHEMBL5724558, “Image-based profiling of drug vulnerabilities in CRC organoids” (2024).
Where “and” joins values, the source holds several entries; their conditions need not be identical. Identical values can stand only once.

Key:
Assay type in all cases: functional, Homo sapiens
Set-up in all cases: dose or concentration left out as unconfirmed
Colon cancer organoid [1] = assay: (§1) Image-based profiling of donated chemical probes and chemogenomic kinase set in O21 CRC organoid. Image analysis is performed on the sum area metric, and the data were normalized to the DMSO control. After imaging the organoid viability is measured using the OneGloEX Luciferase Assay System. The normalized viability data and sum area are reported.
Colon cancer organoid [2] = assay: as §1, with “O09” for “O21”
Colon cancer organoid [3] = assay: as §1, with “O06” for “O21”

Row | SMILES | Cell Viability (Colon cancer organoid [1]; Replication number 1) | Cell Viability (Colon cancer organoid [1]; Replication number 2) | Cell Viability (Colon cancer organoid [2]; Replication number 1) | Cell Viability (Colon cancer organoid [2]; Replication number 2) | Cell Viability (Colon cancer organoid [3]; Replication number 1) | Cell Viability (Colon cancer organoid [3]; Replication number 2)
1 | Cn1nc(C(=O)NCc2ccc(C(=O)O)cc2)cc1-c1ccc2[nH]ccc2c1 [BI 4395] | 90.5249% and 84.9935% | 78.9736% and 83.6735% | 118.116% and 98.6727% | 113.973% and 124.717% | 93.2096% and 84.0749% | 51.0154% and 42.4045%
2 | CNC(=O)c1cc(C(=O)NC2CC2)cn(Cc2ccccc2)c1=O [GSK620] | 98.0477% and 88.9414% | 114.221% and 102.991% | 52.8448% and 80.6552% | 55.7609% and 83.862% | 87.0029% and 102.753% | 87.2683% and 118.693%
3 | CC#CC(=O)N1CCC[C@H]1c1nc(-c2ccc(C(=O)Nc3ccccn3)cc2)c2c(N)nccn12 [ACALABRUTINIB] | 90.1303% and 116.516% | 93.0581% and 134.149% | 72.6716% and 83.0294% | 131.144% and 94.2129% | 108.483% and 104.159% | 68.1537% and 91.7224%
4 | CC(C)(C#Cc1ccc(NC(=O)COc2ccccc2C(=O)c2ccccc2)c(Cl)c1)C(=O)O [BI 2439] | 94.7659% and 113.344% | 112.811% and 119.578% | 115.901% and 103.937% | 114.023% and 92.0585% | 94.1417% and 101.057% | 69.7928% and 91.0899%
5 | COc1ccc(COc2ccc(Cc3cnc(N)nc3N)cc2OC)cc1 [GW632580X] | 84.7531% and 94.7735% | 111.284% and 94.9982% | 97.2833% and 91.2576% | 140.582% and 107.98% | 58.2611% and 105.272% | 114.527% and 102.005%
6 | Cn1cncc1[C@@](O)(COc1ccc(C#N)cc1-c1ccc(OC(F)(F)F)cc1)c1ccc(C#N)cc1 [A-108] | 75.0431% and 83.2471% | 104.838% and 112.755% | 62.58% and 86.4879% | 152.883% and 128.222% | 98.5597% and 105.855% | 74.5028% and 111.105%
7 | NS(=O)(=O)c1cc(NC(=O)Cc2ccccc2)ccc1Oc1cccc(Cl)c1 [BAY-1797] | 97.444% and 106.533% | 100.538% and 94.898% | 109.148% and 118.264% | 102.589% and 110.989% | 118.794% and 140.984% | 77.9849% and 83.6245%
8 | O=C(CNCc1cc2ccccc2[nH]1)N[C@H]1CC[C@@H](c2nc3ccccc3[nH]2)CC1 | 73.7634% and 95.331% | 89.7869% and 102.483% | 116.461% and 89.5122% | 85.4342% and 106.091% | 105.609% and 101.043% | 76.5637% and 75.4756%
9 | CC(=O)N1CCC(c2ccc(C(=O)NC3=NCCN3)cc2C(F)(F)F)CC1 [BI 0054] | 108.593% and 93.1436% | 106.585% and 84.6939% | 145.728% and 140.005% | 185.058% and 111.866% | 118.453% and 112.646% | 54.9204% and 58.7504%
10 | C[C@H]1CC(=O)Nc2cc(C(=O)NCCC3CC3)ccc2N1C(=O)N1CC2CC2C1 (stereo partly specified) | 104.914% and 116.982% | 77.8753% and 111.158% | 82.587% and 82.5348% | 120.178% and 115.743% | 181.689% and 143.275% | 157.26% and 132.873%
11 | O[C@H]1CC[C@H](Nc2ncc3nc(Nc4c(F)cc(F)cc4F)n([C@H]4CCOC4)c3n2)CC1 [TANZISERTIB] | 99.1681% and 86.9686% | 119.868% and 95.5739% | 161.464% and 97.9897% | 183.086% and 108.79% | 85.5595% and 88.3572% | 111.493% and 110.437%
12 | CNc1nc(-c2ccc3c(N)n[nH]c3c2)cc(N2C[C@@H](C(=O)NC3CCCCC3)CC[C@H]2C)n1 | 64.6112% and 105.857% | 53.2272% and 96.363% | 19.6659% and 24.7593% | 39.1039% and 41.4354% | 59.7664% and 83.0769% | 75.2742% and 90.8217%
13 | CC(C)N(CCCNC(=O)Nc1ccc(C(C)(C)C)cc1)C[C@H]1O[C@@H](n2cc(Br)c3c(N)ncnc32)[C@H](O)[C@@H]1O | 110.58% and 96.4076% | 91.3203% and 86.9928% | 88.0955% and 91.1128% | 116.782% and 110.611% | 99.7362% and 93.745% | 121.159% and 96.0701%
14 | Cl.O=C([C@@H](Cc1cccc(C(F)(F)F)c1)NS(=O)(=O)c1cc(F)c2c(c1)CCNC2)N1CCCC1 | 76.7615% and 83.4749% | 81.6272% and 85.3819% | 80.2483% and 102.241% | 101.188% and 101.204% | 106.357% and 105.584% | 187.159% and 130.005%
15 | C[C@@H]1CCNC(=O)c2cc3ccc(C(=O)Nc4nc5ccccc5n4CCCN(C)C)cc3n21 | 69.4409% and 79.1638% | 71.3371% and 86.362% | 82.052% and 59.5917% | 80.614% and 53.9902% | 118.285% and 99.4853% | 110.228% and 88.2262%
16 | O=C(Nc1ccc(-c2ccnc(Nc3ccc(N4CCOCC4)cc3)n2)cc1)[C@@H]1CCCN1 | 122.386% and 130.453% | 118.022% and 143.361% | 74.06% and 64.3291% | 67.524% and 79.6356% | 113.887% and 133.092% | 82.4971% and 82.4679%
17 | Cc1cnc(-c2cc(Cl)ccc2F)cc1-n1c(=O)n(CC(N)=O)c2cnccc21 [TP-008] | 94.8191% and 94.398% | 86.5351% and 93.3039% | 46.9462% and 85.5321% | 76.2638% and 97.3434% | 69.5011% and 111.741% | 79.5252% and 108.842%
18 | CS(=O)(=O)N1CCN(Cc2cc3nc(-c4cccc5[nH]ncc45)nc(N4CCOCC4)c3s2)CC1 [PICTILISIB] | 58.3035% and 68.0139% | 64.7873% and 89.8165% | 49.7053% and 32.4139% | 55.1776% and 34.8237% | 32.227% and 73.4455% | 23.961% and 57.7892%
19 | CCOc1ccc(S(=O)(=O)Nc2ccc(Cl)cc2C#Cc2cnc(C(=O)[O-])cc2OC)c2ncccc12.[K+] | 102.626% and 139.142% | 112.375% and 81.0673% | 79.533% and 90.784% | 112.265% and 100.119% | 90.5182% and 89.6356% | 107.269% and 105.718%
20 | Cc1c(N2CCCC2)nc2ccc(Br)cc2c1C(=O)NC[C@H](CCC(=O)O)c1ccccc1Cl [BAY-6672] | 101.261% and 132.048% | 101.473% and 100.952% | 62.7098% and 89.8462% | 112.488% and 108.842% | 80.703% and 111.012% | 84.0903% and 90.3412%
21 | Cc1cc2c(-c3ccco3)cnc(N[C@H]3CCN(C)C[C@@H]3C(=O)NC3CCCCC3)c2[nH]c1=O [GSK791] | 103.348% and 100.946% | 100.095% and 111.149% | 46.4952% and 92.4722% | 100.727% and 114.988% | 106.466% and 102.024% | 100.388% and 101.634%
22 | Cc1cc(=O)n(C)c2cc(N3C(=O)CC[C@H](NS(=O)(=O)CC(C)C)[C@H]3c3ccc(Cl)cc3)ccc12 | 117.189% and 110.516% | 129.923% and 112.232% | 117.261% and 101.082% | 140.716% and 110.041% | 144.152% and 97.8523% | 176.827% and 107.063%
23 | CCCc1cc(C)[nH]c(=O)c1CNC(=O)c1cc(-c2ccc(N3CCN(C(C)C)CC3)nc2)cc2c1cnn2C(C)C | 90.7936% and 81.7113% | 90.0059% and 120.286% | 144.261% and 110.819% | 125.635% and 91.796% | 117.017% and 105.342% | 150.35% and 108.975%
24 | O=C(NCc1ncc(C(F)(F)F)cc1Cl)c1ccc2c(c1)C1(CCS(=O)(=O)CC1)[C@@H](C1CC1)N2S(=O)(=O)c1ccc(F)cc1 [BAY-786] | 89.1117% and 93.1436% | 89.1705% and 87.7551% | 144.169% and 104.407% | 144.169% and 145.747% | 93.4369% and 85.4801% | 92.4233% and 87.6518%
25 | CC(=O)Nc1nc(CN2CCC[C@H](Cc3cc(C)nc(C)c3)C2)cs1 [JNJ-73924149] | 83.219% and 91.2416% | 110.349% and 95.2087% | 161.492% and 89.8313% | 217.991% and 98.2452% | 110.009% and 115.731% | 115.696% and 107.702%
26 | CCOCCn1cc(C(=O)Nc2ccc(-n3nc(-c4cccnc4)cc3C(F)(F)F)cn2)ccc1=O [BI 1935] | 115.071% and 97.8008% | 110.735% and 98.9796% | 99.959% and 99.8673% | 61.8115% and 83.5341% | 106.067% and 119.906% | 111.838% and 96.8907%
